Test results as given in patent US20020035146A1, “Antifungal compounds and compositions and antifungal use thereof” (priority 2000, published 2002).

How the values were obtained:
Botrytis cinerea spores = experiment: Inhibition of germination of Botrytis cinerea spores (germination-associated adhesion in microtiter plates, sulforhodamine B); assay type: cell-based; details: B. cinerea spores in SDB, 25° C., 5.5 hours; compound 1 encapsulated in α-cyclodextrin (0.14% by weight)
Procedure: Compounds were evaluated for the ability to inhibit germination of Botrytis cinerea spores using an assay which measures the inhibition of germination-associated adhesion in microtiter plates. […] This solution was then diluted with SDB to give a solution concentration of compound 2 of 1000 ppm. Comparison compound, AVG, was dissolved in SDB at 5 mg/ml. Two-fold serial dilutions of the solutions of these compounds in SDB were made in 100 μl aliquots of SDB in 96-well microtiter plates. Spore suspension of B. cinerea (100 μl at 2×10^5 spores/ml) was added to the wells. The plates were then incubated at 25° C. for 5.5 hours at which time spores in control wells had germinated. The medium containing unbound spores was removed by inverting and flicking the microtiter plate to remove as much liquid as possible. Quantitation of the adhered spores was achieved by measuring their cellular protein content using sulforhodamine B (see Skehan et al., Journal of the National Cancer Institute, 82, 1107-1112 (1990)), measuring absorbance at 564 nm. Inhibition of adhesion was determined by comparing the absorbance value in a well containing fungicide with the absorbance in control wells without fungicide. EC50 values for germination inhibition were determined from dose-response curves.

[1] = test system: Botrytis rot on rose petals; experiment: Suppression of Botrytis rot on rose petals; assay type: in vivo; details: white rose petals exposed to 100 ppm in the gas phase for 90 minutes before inoculation; assessed after 10 days; two trials combined; control 66.7
Procedure: Freshly cut white roses were purchased from Zieger & Sons, Inc. rose growers. Non senescing petals were chosen to perform the experiment. Petals were placed in plastic petri dishes (100×20 mm) each containing a moist #3 Whatman filter paper with one petal per petri dish.
Compound 1, formulated as in Example 1 (0.778 g) was dissolved in 20 ml hot water in a 100 ml jar sealed with a cap. When the powder was dissolved, the jar was placed in a 4.8 liter cabinet containing three petri dishes (without the lids) with petals. The cap of the jar was quickly removed and the cabinets sealed for ninety (90) minutes. The concentration of Compound 1 in the gas phase was 100 ppm.
After exposure to Compound 1 at 100 ppm the petals were inoculated with two 20μl drops of spore suspension containing 1×10^6 spores per ml. Controls were inoculated without prior exposure to Compound 1.
Lids were placed on the petri dishes and the dishes were transferred to a plant growth chamber set at a 12 hour photoperiod, a 20° C. day temperature and 18° C. night temperature, and 70% relative humidity to allow disease development. The number of petals with sporulating lesions was determined after 10 days. Two trials were conducted with 3 petals per treatment in each trial. The combined results from the two trials were as follows: […]

Pyricularia oryzae = assay type: cell-based; details: spore suspension, 25° C., 5 days, compound encapsulated in α-cyclodextrin (0.14% by weight)
[2] = test system: Colletotrichum lagenarium; assay type: cell-based; details: spore suspension, 25° C., 5 days, compound encapsulated in α-cyclodextrin (0.14% by weight)
Phytophthora capsici = assay type: cell-based; details: spore suspension, 25° C., 5 days, compound encapsulated in α-cyclodextrin (0.14% by weight)
Rhizoctonia solani = assay type: cell-based; details: mycelial homogenate, 25° C., 5 days, compound encapsulated in α-cyclodextrin (0.14% by weight)
Septoria nodorum = assay type: cell-based; details: spore suspension, 25° C., 2 days, compound encapsulated in α-cyclodextrin (0.14% by weight)
Botrytis cinerea = experiment: Technical material v. formulation: inhibition of fungal growth in sealed vials (sulforhodamine B); assay type: cell-based; details: technical material added in acetone, 16 hours
Procedure: Since compound 1 is a gas at room temperature its activity as a technical material in solution was evaluated in sealed vials with a small head space as follows. Compound 1, formulated by encapsulation in a-cyclodextrin, was also tested for comparison.
Compound 1 (technical material) was added to 21×50 mm glass vials on dry ice as the appropriate amount of a 14% (w/v) solution in acetone to provide the desired concentrations. (The acetone solutions were kept on dry ice or in a freezer at −80° C. until used.) Controls received the same volumes of acetone alone. A spore suspension (8 ml) of Botrytis cinerea at 2.5×10^4 spores/ml in two-fold diluted SDB was added to each vial. The vials were immediately sealed with polyethylene plugs and placed in a […] incubator for 16 hours. The extent of fungal growth in the vials was determined by measuring their cellular protein content using sulforhodamine B (Skehan, et al., Journal of the National Cancer Institute 82, 1107-1112 (1990)), and the percent inhibition of growth was calculated by comparing growth in the treatments with growth in the controls.
The desired amounts of Compound 1, formulated by encapsulation in α-cyclodextrin ([…]) were added to glass vials. A spore suspension (8 ml) of Botrytis cinerea at 2.5×10^4 spores/ml in two-fold diluted SDB was added to each vial, and vials processed as described above.

Pythium ultimum = assay type: cell-based; details: mycelial homogenate, 25° C., 2 days, compound encapsulated in α-cyclodextrin (0.14% by weight)

Row | SMILES | EC50 for germination inhibition (Botrytis cinerea spores) | Petals with sporulating lesions (%) [1] | EC50 (mycelial growth) (Pyricularia oryzae) | EC50 (mycelial growth) [2] | EC50 (mycelial growth) (Phytophthora capsici) | EC50 (mycelial growth) (Rhizoctonia solani) | EC50 (mycelial growth) (Septoria nodorum) | % Inhibition of growth (Botrytis cinerea; 175 ppm) | % Inhibition of growth (Botrytis cinerea; 350 ppm) | % Inhibition of growth (Botrytis cinerea; 525 ppm) | EC50 (mycelial growth) (Pythium ultimum)
1 | CC1=CC1 [Compound 1, 1-methylcyclopropene] | 37 ppm | 16.7% | 6.7 ppm | >70 ppm | 6.9 ppm | 7.4 ppm | 22.5 ppm | 30.1% | 99.4% | 99.8% | 2.6 ppm
2 | CCCCCCCCC1=CC1(F)F [Compound 2, 1-n-octyl-3,3-difluorocyclopropene] | 3.3 ppm | – | – | – | – | – | – | – | – | – | –
